Values quoted from earlier work, collected in patent US20040105900A1, “Extracts derived from Pueraria mirifica, Butea superba and/or Mucuna collettii and extraction thereof” (CHEIL JEDANG CORPORATION, priority 1999, published 2004).

System: skin of menopausal females
Conditions: after 6 months of application to the skin

## estrogen
  improvement in the depth of wrinkles: 60%
